# System: Treponema hyodysenteriae induced swine dysentery
# Assay: Treponema hyodysenteriae induced swine dysentery, lysocellin in feed, 51-day trial, challenge on study day 22
# Assay type: in vivo
# Settings: for Daily feed / Daily gain / Feed/Gain: infected pigs
# From the text: One hundred twenty (120) cross-bred barrows and gilts were used in a randomized complete blocks design to evaluate the effect of lysocellin on Treponema hyodysenteriae induced swine dysentery. The swine were divided into 4 groups: (1) non-infected, non-medicated controls, (2) infected non-medicated controls, (3) infected, medicated at 98.43 grams lysocellin/t (100 g/T), and (4) infected, medicated at 196.85 grams lysocellin/t (200 g/T). All were observed through a 51-day trial period. Swine in groups (2)-(4) were challenged with Treponema hyodysenteriae on study day 22 and the post-challenge period data were analyzed for significant differences. A description of the experimental design is summarized as follows:
# Comparisons were made on treatment 1 vs. treatments 3 and 4, treatment 2 vs. treatment 3 and 4, and treatment 3 vs. treatment 4. The following observations were made based upon data analyzed: postchallenge performance of swine with respect to daily gain and daily feed gain, number of pigs per pen expressing clinical signs of dysentery during the postchallenge period, number of pig days per pen with clinical signs of dysentery during the postchallenge period, and number of pig days per pen with specified fecal score.
# Referring to table 3 and table 4, clinical signs of dysentery observed during the postchallenge period are presented as treatment means of: number of pigs per pen expressing the sign and number of pig days the sign was observed within a pen. The value "pig days" was based on 28 days/pig surviving to the end of the trial or number of days a pig survived during the postchallenge period (for example, 5 pigs/pen on trial for 28 days equals 140 pig days). Removal of pigs from a pen during the trial was taken into account in these calculations.
# [1] = 196.85 g/t (200 g/T) lysocellin, mean (lower, higher 95% confidence limits), 5 pigs/pen for 28 days = 140 pig days
# [2] = postchallenge period 0-7 days, 98.43 g/t (100 g/T) lysocellin
# [3] = postchallenge period 0-7 days, 196.85 g/t (200 g/T) lysocellin
# [4] = postchallenge period 0-14 days, 98.43 g/t (100 g/T) lysocellin
# [5] = postchallenge period 0-14 days, 196.85 g/t (200 g/T) lysocellin
# [6] = postchallenge period 0-21 days, 98.43 g/t (100 g/T) lysocellin
# [7] = postchallenge period 0-21 days, 196.85 g/t (200 g/T) lysocellin
# [8] = postchallenge period 0-28 days, 98.43 g/t (100 g/T) lysocellin
# [9] = postchallenge period 0-28 days, 196.85 g/t (200 g/T) lysocellin
substance,measurement,setting,value
lysocellin,Number of Pig Days per Pen with Clinical Signs of Dysentery During the Postchallenge Period: Depressed,[1],"0.38 (-0.21,1.29)"
same,Number of Pig Days per Pen with Clinical Signs of Dysentery During the Postchallenge Period: Gauntness,[1],"11.17 (5.73,18.30)"
same,Number of Pig Days per Pen with Clinical Signs of Dysentery During the Postchallenge Period: Lethargic,[1],"1.82 (0.07,4.74)"
same,Number of Pig Days per Pen with Clinical Signs of Dysentery During the Postchallenge Period: Reddened skin,[1],"1.29 (-0.02,3.41)"
same,Number of Pig Days per Pen with Clinical Signs of Dysentery During the Postchallenge Period: Rough hair coat,[1],"9.55 (2.33,21.19)"
same,Number of Pig Days per Pen with Clinical Signs of Dysentery During the Postchallenge Period: Weak,[1],"0.13 (-0.35,0.94)"
same,mortality,infected pigs fed lysocellin,prevented mortality
same,anorexia (clinical sign),"infected pigs receiving either level of lysocellin, postchallenge period",No pigs receiving lysocellin appeared anorexic
same,feed efficiency,pigs receiving lysocellin (either level) vs infected control pigs,superior (P<.05)
same,cumulative average daily gain,"pigs receiving lysocellin (either level) vs infected nonmedicated pigs, each period (7, 14, 21 and 28 days)",improved (P<.05) over that of nonmedicated pigs
same,fecal condition (number of pen pig days with a specified fecal condition),"pigs receiving lysocellin vs infected non-medicated control pigs, postchallenge period (Table 5, not given)",Infected non-medicated control pigs had significantly fewer (P<.05) days of normal feces and more (P<.05) days of water or bloody diarrhea than pigs receiving lysocellin
same,Daily feed,[2],1.06 kg/day
same,Daily gain,[2],0.35 kg/day
same,Feed/Gain,[2],3.21
same,Daily feed,[3],0.94 kg/day
same,Daily gain,[3],0.41 kg/day
same,Feed/Gain,[3],2.30
same,Daily feed,[4],0.90 kg/day
same,Daily gain,[4],0.22 kg/day
same,Feed/Gain,[4],4.61
same,Daily feed,[5],1.03 kg/day
same,Daily gain,[5],0.35 kg/day
same,Feed/Gain,[5],2.99
same,Daily feed,[6],0.89 kg/day
same,Daily gain,[6],0.28 kg/day
same,Feed/Gain,[6],3.38
same,Daily feed,[7],1.07 kg/day
same,Daily gain,[7],0.42 kg/day
same,Feed/Gain,[7],2.55
same,Daily feed,[8],0.99 kg/day
same,Daily gain,[8],0.33 kg/day
same,Feed/Gain,[8],3.01
same,Daily feed,[9],1.15 kg/day
same,Daily gain,[9],0.45 kg/day
same,Feed/Gain,[9],2.55

# From patent EP0250134B1, “Method for combating swine dysentery” (IMCERA Group Inc., priority 1986, dated 1987)
